Measurements as given in ChEMBL document CHEMBL3600327, “Synthesis of a novel series of fluoroarene derivatives of artemisinin as potent antifungal and anticancer agent” (Bioorg Med Chem Lett, 2015).
pIC50: −log10 of the molar value.

Legend:
Fusarium oxysporum [1] = test: Antifungal activity against Fusarium oxysporum assessed as inhibition of mycelia growth at 200 ppm after 1 week by filter paper method relative to control; assay type: functional; conditions: 168 h, read-out: GI
Fusarium oxysporum [2] = test: Antifungal activity against Fusarium oxysporum assessed as inhibition of mycelia growth at 400 ppm after 1 week by filter paper method relative to control; assay type: functional; conditions: 168 h, read-out: GI
Fusarium oxysporum [3] = test: Antifungal activity against Fusarium oxysporum assessed as inhibition of mycelia growth at 800 ppm after 1 week by filter paper method relative to control; assay type: functional; conditions: 168 h, read-out: GI
Fusarium oxysporum [4] = test: Antifungal activity against Fusarium oxysporum assessed as inhibition of mycelia growth at 1000 ppm after 1 week by filter paper method relative to control; assay type: functional; conditions: 168 h, read-out: GI
Fusarium oxysporum [5] = test: Antifungal activity against Fusarium oxysporum assessed as inhibition of mycelia growth at 600 ppm after 1 week by filter paper method relative to control; assay type: functional; conditions: 168 h, read-out: GI
HeLa = test: Cytotoxicity against human HeLa cells measured at 48 hrs by MTT assay; assay type: functional, cell-based

In the case of `C[C@H]1[C@@H](OCCC#Cc2ccc(-c3cccc(C(F)(F)F)c3)cc2)O[C@@H]2O[C@@]3(C)CC[C@H]4[C@H](C)CC[C@@H]1[C@@]24OO3`, the inhibition of growth at 200 ppm (Fusarium oxysporum [1]) was 65.6%, the inhibition of growth at 400 ppm (Fusarium oxysporum [2]) was 66.5% and the inhibition of growth at 800 ppm (Fusarium oxysporum [3]) was 69%. It also gave an inhibition of growth at 1000 ppm (Fusarium oxysporum [4]) of 70.2% and an inhibition of growth at 600 ppm (Fusarium oxysporum [5]) of 67.6%.

In the case of `C[C@H]1[C@@H](OCC#Cc2ccc(F)cc2)O[C@@H]2O[C@@]3(C)CC[C@H]4[C@H](C)CC[C@@H]1[C@@]24OO3`, the pIC50 (HeLa) was 4.58, the inhibition of growth at 200 ppm (Fusarium oxysporum [1]) was 53.5% and the inhibition of growth at 400 ppm (Fusarium oxysporum [2]) was 54.4%. The inhibition of growth at 800 ppm (Fusarium oxysporum [3]) was 57.6%, the inhibition of growth at 1000 ppm (Fusarium oxysporum [4]) was 59% and the inhibition of growth at 600 ppm (Fusarium oxysporum [5]) was 56%.

`C[C@@H]1CC[C@H]2[C@@H](C)C(=O)O[C@@H]3O[C@@]4(C)CC[C@@H]1[C@]32OO4` [ARTEMISININ] was tested, and the pIC50 (HeLa) was 3.31, the inhibition of growth at 200 ppm (Fusarium oxysporum [1]) was 72% and the inhibition of growth at 400 ppm (Fusarium oxysporum [2]) was 75.5%. The inhibition of growth at 800 ppm (Fusarium oxysporum [3]) was 77.2%, the inhibition of growth at 1000 ppm (Fusarium oxysporum [4]) was 78.5% and the inhibition of growth at 600 ppm (Fusarium oxysporum [5]) was 76%.

Work on `C#CCCO[C@H]1O[C@@H]2O[C@@]3(C)CC[C@H]4[C@H](C)CC[C@@H]([C@H]1C)[C@@]24OO3` yielded an inhibition of growth at 200 ppm (Fusarium oxysporum [1]) of 70%, an inhibition of growth at 400 ppm (Fusarium oxysporum [2]) of 73.2% and an inhibition of growth at 800 ppm (Fusarium oxysporum [3]) of 76.8%. For the same compound, the inhibition of growth at 1000 ppm (Fusarium oxysporum [4]) was 77.6% and the inhibition of growth at 600 ppm (Fusarium oxysporum [5]) was 75.4%.

Work on `C[C@H]1[C@@H](OCCC#Cc2ccc(F)nc2)O[C@@H]2O[C@@]3(C)CC[C@H]4[C@H](C)CC[C@@H]1[C@@]24OO3` yielded a pIC50 (HeLa) of 4.68, an inhibition of growth at 200 ppm (Fusarium oxysporum [1]) of 62.4% and an inhibition of growth at 400 ppm (Fusarium oxysporum [2]) of 63.9%. For the same compound, the inhibition of growth at 800 ppm (Fusarium oxysporum [3]) was 66.4%, the inhibition of growth at 1000 ppm (Fusarium oxysporum [4]) was 67.8% and the inhibition of growth at 600 ppm (Fusarium oxysporum [5]) was 65%.

For `C#CCO[C@H]1O[C@@H]2O[C@@]3(C)CC[C@H]4[C@H](C)CC[C@@H]([C@H]1C)[C@@]24OO3`, the inhibition of growth at 200 ppm (Fusarium oxysporum [1]) was 64.8%, the inhibition of growth at 400 ppm (Fusarium oxysporum [2]) was 66.4% and the inhibition of growth at 800 ppm (Fusarium oxysporum [3]) was 70.2%. The inhibition of growth at 1000 ppm (Fusarium oxysporum [4]) was 72% and the inhibition of growth at 600 ppm (Fusarium oxysporum [5]) was 68.8%.

In the case of `C[C@H]1[C@@H](OCC#Cc2ccccc2F)O[C@@H]2O[C@@]3(C)CC[C@H]4[C@H](C)CC[C@@H]1[C@@]24OO3`, the pIC50 (HeLa) was 3.86, the inhibition of growth at 200 ppm (Fusarium oxysporum [1]) was 53.6% and the inhibition of growth at 400 ppm (Fusarium oxysporum [2]) was 54.2%. For the same compound, the inhibition of growth at 800 ppm (Fusarium oxysporum [3]) was 56.8%, the inhibition of growth at 1000 ppm (Fusarium oxysporum [4]) was 57.6% and the inhibition of growth at 600 ppm (Fusarium oxysporum [5]) was 55.2%.

`C[C@H]1[C@@H](OCC#Cc2ccc(F)nc2)O[C@@H]2O[C@@]3(C)CC[C@H]4[C@H](C)CC[C@@H]1[C@@]24OO3` gave an inhibition of growth at 200 ppm (Fusarium oxysporum [1]) of 56.4%, an inhibition of growth at 400 ppm (Fusarium oxysporum [2]) of 58.4% and an inhibition of growth at 800 ppm (Fusarium oxysporum [3]) of 62.5%. It also gave an inhibition of growth at 1000 ppm (Fusarium oxysporum [4]) of 63.8% and an inhibition of growth at 600 ppm (Fusarium oxysporum [5]) of 61%.

Compound `C[C@H]1[C@@H](OCC#Cc2cccc(F)c2)O[C@@H]2O[C@@]3(C)CC[C@H]4[C@H](C)CC[C@@H]1[C@@]24OO3` has a pIC50 (HeLa) of 4.85, an inhibition of growth at 200 ppm (Fusarium oxysporum [1]) of 60% and an inhibition of growth at 400 ppm (Fusarium oxysporum [2]) of 61.8%. It also gave an inhibition of growth at 800 ppm (Fusarium oxysporum [3]) of 64%, an inhibition of growth at 1000 ppm (Fusarium oxysporum [4]) of 65.2% and an inhibition of growth at 600 ppm (Fusarium oxysporum [5]) of 62%.

Work on `C[C@H]1[C@@H](OCCC#Cc2ccc(-c3ccc(F)cc3)cc2)O[C@@H]2O[C@@]3(C)CC[C@H]4[C@H](C)CC[C@@H]1[C@@]24OO3` yielded a pIC50 (HeLa) of 4.88, an inhibition of growth at 200 ppm (Fusarium oxysporum [1]) of 67% and an inhibition of growth at 400 ppm (Fusarium oxysporum [2]) of 67.9%. For the same compound, the inhibition of growth at 800 ppm (Fusarium oxysporum [3]) was 71%, the inhibition of growth at 1000 ppm (Fusarium oxysporum [4]) was 72.8% and the inhibition of growth at 600 ppm (Fusarium oxysporum [5]) was 70.2%.

In the case of `C[C@H]1[C@@H](OCCC#Cc2ccc(-c3ccc(F)cc3)s2)O[C@@H]2O[C@@]3(C)CC[C@H]4[C@H](C)CC[C@@H]1[C@@]24OO3`, the pIC50 (HeLa) was 4.44, the inhibition of growth at 200 ppm (Fusarium oxysporum [1]) was 66.4% and the inhibition of growth at 400 ppm (Fusarium oxysporum [2]) was 66.9%. It also gave an inhibition of growth at 800 ppm (Fusarium oxysporum [3]) of 69.9%, an inhibition of growth at 1000 ppm (Fusarium oxysporum [4]) of 71% and an inhibition of growth at 600 ppm (Fusarium oxysporum [5]) of 68%.

`C[C@H]1[C@@H](OCCC#Cc2cccc(-c3ccc(F)cc3)c2)O[C@@H]2O[C@@]3(C)CC[C@H]4[C@H](C)CC[C@@H]1[C@@]24OO3` was tested, and the pIC50 (HeLa) was 3.95, the inhibition of growth at 200 ppm (Fusarium oxysporum [1]) was 64% and the inhibition of growth at 400 ppm (Fusarium oxysporum [2]) was 65.2%. It also gave an inhibition of growth at 800 ppm (Fusarium oxysporum [3]) of 68%, an inhibition of growth at 1000 ppm (Fusarium oxysporum [4]) of 69.8% and an inhibition of growth at 600 ppm (Fusarium oxysporum [5]) of 66.4%.
